In patent US20260256792A1, “TREATMENT OF CHRONIC SPONTANEOUS URTICARIA BY ADMINISTERING (R)-2-[3-[4-AMINO-3-(2-FLUORO-4-PHENOXY-PHENYL)PYRAZOLO[3,4-D]PYRIMIDIN-1-YL]PIPERIDINE-1-CARBONYL]-4-METHYL-4-[4-(OXETAN-3-YL)PIPERAZIN-1-YL]PENT-2-ENENITRILE” (priority 2023, published 2026):

System: moderate-to-severe chronic spontaneous urticaria (CSU)
Assay: Phase 2 CSU study: hives severity score over 7 days (HSS7)
Format: in vivo, human
Parameters: key to HSS7 Change from baseline, Median / HSS7, Median / HSS7, Max / HSS7 Change from baseline, Q1 / HSS7 Change from baseline, Q3 / HSS7 Change from baseline, Max: 7-day sum of daily hive scores, each 0 = none to 3 = >50 hives
Source text: The study comprises a 12 week, randomized, double-blind, placebo-controlled, multi-center, dose-ranging efficacy and safety phase, followed by a 40 week open label extension (OLE) phase (see FIG. 1).
The study consists of three phases and an optional OLE phase.
The UAS is a validated PRO measure. The daily UAS is the sum of the daily Hive Severity Score (HSS, ranging from 0=None to 3=more than 50 hives) and the daily Itch Severity Score (ISS, ranging from 0=None to 3=intense), the 2 key urticaria signs and symptoms which are wheals and itch. The daily UAS scores range from 0 to 6 point/day. Daily UAS scores are summed over 7-day period to create the UAS7, ranging from 0 to 42, and are composed of the HSS7 and ISS7 components. […] Patients were to complete the UAS using the e-diary. The e-diary was to be used once daily on the same time of each day recording of participant's answers to the urticaria activity score over 7 days (UAS7) questionnaire. For participants who entered the OLE phase, their answers to the UAS7 questionnaire were also to be collected from Week 20 to Week24 and from Week 48 to Week 52.
The following secondary endpoints were to be analyzed using the same approach as for the primary endpoint: • Change from baseline in UAS7 at Week 4 • Change from baseline in UAS7 at Week 12 (for US and US reference countries) • Change from baseline in ISS7 at Week 12 (except US and US reference countries) • Change from baseline in HSS7 at Week 12

[1] = Week 4, 400 mg BID, Omalizumab-Naïve Population
[2] = Week 4, 400 mg BID, Patients with Prior Omalizumab Use
[3] = Week 4, 400 mg QPM, Omalizumab-Naïve Population
[4] = Week 4, 400 mg QPM, Patients with Prior Omalizumab Use
[5] = Week 4, 400 mg TID, Omalizumab-Naïve Population
[6] = Week 4, 400 mg TID, Patients with Prior Omalizumab Use
[7] = Week 5, 400 mg BID, Omalizumab-Naïve Population
[8] = Week 5, 400 mg BID, Patients with Prior Omalizumab Use
[9] = Week 5, 400 mg QPM, Omalizumab-Naïve Population
[10] = Week 5, 400 mg QPM, Patients with Prior Omalizumab Use
[11] = Week 5, 400 mg TID, Omalizumab-Naïve Population
[12] = Week 5, 400 mg TID, Patients with Prior Omalizumab Use
[13] = Week 6, 400 mg BID, Omalizumab-Naïve Population
[14] = Week 6, 400 mg BID, Patients with Prior Omalizumab Use
[15] = Week 6, 400 mg QPM, Omalizumab-Naïve Population
[16] = Week 6, 400 mg QPM, Patients with Prior Omalizumab Use
[17] = Week 6, 400 mg TID, Omalizumab-Naïve Population
[18] = Week 6, 400 mg TID, Patients with Prior Omalizumab Use

CC(C)(C=C(C#N)C(=O)N1CCC[C@@H](n2nc(-c3ccc(Oc4ccccc4)cc3F)c3c(N)ncnc32)C1)N1CCN(C2COC2)CC1 [rilzabrutinib, (R)-2-[3-[4-amino-3-(2-fluoro-4-phenoxy-phenyl)pyrazolo[3,4-d]pyrimidin-1-yl]piperidine-1-carbonyl]-4-methyl-4-[4-(oxetan-3-yl)piperazin-1-yl]pent-2-enenitrile]
HSS7, Mean (SD) [1]: 7.60 (6.00) | HSS7, Median [1]: 7.00 | HSS7 Change from baseline, Mean (SD) [1]: −6.54 (5.34) | HSS7 Change from baseline, Median [1]: −6.00 | HSS7 Percent change from baseline, Mean (SD) [1]: −47.44 (37.17) % | HSS7 Percent change from baseline, Median [1]: −42.86% | HSS7, Mean (SD) [2]: 6.80 (8.04) | HSS7, Median [2]: 2.00 | HSS7 Change from baseline, Mean (SD) [2]: −10.00 (8.34) | HSS7 Change from baseline, Median [2]: −12.00 | HSS7 Percent change from baseline, Mean (SD) [2]: −60.22 (47.52) % | HSS7 Percent change from baseline, Median [2]: −88.24% | HSS7 Change from baseline, Mean (SD) [3]: −4.20 (4.74) | HSS7 Change from baseline, Median [3]: −3.00 | HSS7 Percent change from baseline, Mean (SD) [3]: −26.30 (29.41) % | HSS7 Percent change from baseline, Median [3]: −16.67% | HSS7, Mean (SD) [4]: 10.00 (NC) | HSS7 Change from baseline, Mean (SD) [4]: −10.00 (NC) | HSS7 Change from baseline, Median [4]: −10.00 | HSS7 Percent change from baseline, Mean (SD) [4]: −50.00 (NC) % | HSS7 Percent change from baseline, Median [4]: −50.00% | HSS7, Mean (SD) [5]: 6.85 (4.96) | HSS7, Median [5]: 6.50 | HSS7 Change from baseline, Mean (SD) [5]: −7.21 (5.24) | HSS7 Change from baseline, Median [5]: −6.58 | HSS7 Percent change from baseline, Mean (SD) [5]: −50.43 (33.03) % | HSS7 Percent change from baseline, Median [5]: −50.69% | HSS7, Mean (SD) [6]: 3.92 (4.26) | HSS7, Median [6]: 3.17 | HSS7 Change from baseline, Mean (SD) [6]: −12.11 (6.81) | HSS7 Change from baseline, Median [6]: −12.42 | HSS7 Percent change from baseline, Mean (SD) [6]: −73.06 (22.97) % | HSS7 Percent change from baseline, Median [6]: −76.19% | HSS7, Mean (SD) [7]: 8.34 (6.75) | HSS7, Median [7]: 7.00 | HSS7 Change from baseline, Mean (SD) [7]: −6.01 (5.82) | HSS7 Change from baseline, Median [7]: −7.00 | HSS7 Percent change from baseline, Mean (SD) [7]: −43.27 (41.28) % | HSS7 Percent change from baseline, Median [7]: −42.86% | HSS7, Mean (SD) [8]: 4.25 (8.50) | HSS7, Median [8]: 0.00 | HSS7 Change from baseline, Median [8]: −14.50 | HSS7 Percent change from baseline, Mean (SD) [8]: −75.00 (50.00) % | HSS7 Percent change from baseline, Median [8]: −100.00% | HSS7, Mean (SD) [9]: 9.63 (5.13) | HSS7, Median [9]: 8.20 | HSS7 Change from baseline, Mean (SD) [9]: −5.12 (5.22) | HSS7 Change from baseline, Median [9]: −3.50 | HSS7 Percent change from baseline, Mean (SD) [9]: −32.44 (31.06) % | HSS7 Percent change from baseline, Median [9]: −26.11% | HSS7, Mean (SD) [10]: 8.00 (NC) | HSS7, Median [10]: 8.00 | HSS7 Change from baseline, Mean (SD) [10]: −12.00 (NC) | HSS7 Change from baseline, Median [10]: −12.00 | HSS7 Percent change from baseline, Mean (SD) [10]: −60.00 (NC) % | HSS7 Percent change from baseline, Median [10]: −60.00% | HSS7, Mean (SD) [11]: 6.49 (5.14) | HSS7, Median [11]: 6.00 | HSS7 Change from baseline, Mean (SD) [11]: −7.57 (5.71) | HSS7 Change from baseline, Median [11]: −7.00 | HSS7 Percent change from baseline, Mean (SD) [11]: −52.28 (34.93) % | HSS7 Percent change from baseline, Median [11]: −50.00% | HSS7, Mean (SD) [12]: 3.42 (4.45) | HSS7, Median [12]: 2.50 | HSS7 Change from baseline, Mean (SD) [12]: −12.61 (7.49) | HSS7 Change from baseline, Median [12]: −12.00 | HSS7 Percent change from baseline, Mean (SD) [12]: −75.12 (24.22) % | HSS7 Percent change from baseline, Median [12]: −75.37% | HSS7, Mean (SD) [13]: 8.17 (6.62) | HSS7, Median [13]: 7.00 | HSS7 Change from baseline, Mean (SD) [13]: −6.17 (6.01) | HSS7 Change from baseline, Median [13]: −6.42 | HSS7 Percent change from baseline, Mean (SD) [13]: −43.56 (44.25) % | HSS7 Percent change from baseline, Median [13]: −47.73% | HSS7, Mean (SD) [14]: 5.97 (7.25) | HSS7, Median [14]: 3.50 | HSS7 Change from baseline, Mean (SD) [14]: −8.83 (9.41) | HSS7 Change from baseline, Median [14]: −12.00 | HSS7 Percent change from baseline, Mean (SD) [14]: −50.00 (62.36) % | HSS7 Percent change from baseline, Median [14]: −83.33% | HSS7, Mean (SD) [15]: 9.94 (5.76) | HSS7, Median [15]: 8.28 | HSS7 Change from baseline, Mean (SD) [15]: −5.20 (5.64) | HSS7 Change from baseline, Median [15]: −4.50 | HSS7 Percent change from baseline, Mean (SD) [15]: −33.60 (35.00) % | HSS7 Percent change from baseline, Median [15]: −37.09% | HSS7, Mean (SD) [16]: 8.00 (NC) | HSS7, Median [16]: 8.00 | HSS7 Change from baseline, Mean (SD) [16]: −12.00 (NC) | HSS7 Change from baseline, Median [16]: −12.00 | HSS7 Percent change from baseline, Mean (SD) [16]: −60.00 (NC) % | HSS7 Percent change from baseline, Median [16]: −60.00% | HSS7, Mean (SD) [17]: 6.78 (5.55) | HSS7, Median [17]: 6.00 | HSS7 Change from baseline, Mean (SD) [17]: −7.22 (6.24) | HSS7 Change from baseline, Median [17]: −7.00 | HSS7 Percent change from baseline, Mean (SD) [17]: −49.49 (37.97) % | HSS7 Percent change from baseline, Median [17]: −46.15% | HSS7, Mean (SD) [18]: 2.83 (4.62) | HSS7, Median [18]: 1.00 | HSS7 Change from baseline, Mean (SD) [18]: −13.19 (6.97) | HSS7 Change from baseline, Median [18]: −13.00 | HSS7 Percent change from baseline, Mean (SD) [18]: −81.39 (23.52) % | HSS7 Percent change from baseline, Median [18]: −91.50%
